Values after ≈ are worked out from the molar mass of the structure shown. Active and inactive are the calls of the source. No cut-off for these calls is given here.
Tests used:
Cathepsin D = Cathepsin D (Homo sapiens, UniProt P07339); assay: Inhibition of human placenta CatD using Abz-Lys-Pro-Ala-Glu-Phe-Nph-Ala-Leu as substrate preincubated for 10 mins followed by substrate addition and measured by FRET assay
[1] = Apparent permeability in human Caco2 cells at 5 uM measured after 5 hrs by LC-MS analysis; format: ADME, cell-based; conditions: Caco-2
NHDF = assay: Cytotoxicity against NHDF cells assessed as reduction in cell viability up to 100 uM measured after 72 hrs by Celltiter-glo assay; format: cell-based; conditions: human
PBMC = assay: Cytotoxicity against human PBMC cells assessed as reduction in cell viability up to 100 uM measured after 72 hrs by Celltiter-glo assay; format: cell-based
Renin (Homo sapiens) [2] = target: T1, Renin (Homo sapiens) (UniProt P00797); assay: Inhibition of recombinant human N-terminal FLAG-tagged renin (67 to 406 residues) expressed in HEK cells at 50 nM using Arg-Glu(EDANS)-Ile-His-Pro-Phe-His-Leu-Val-Ile-His-Thr-Lys(Dabcyl)-Arg as substrate preincubated for 10 mins followed by substrate addition and measured by FRET assay
T1 sequence (whole entry): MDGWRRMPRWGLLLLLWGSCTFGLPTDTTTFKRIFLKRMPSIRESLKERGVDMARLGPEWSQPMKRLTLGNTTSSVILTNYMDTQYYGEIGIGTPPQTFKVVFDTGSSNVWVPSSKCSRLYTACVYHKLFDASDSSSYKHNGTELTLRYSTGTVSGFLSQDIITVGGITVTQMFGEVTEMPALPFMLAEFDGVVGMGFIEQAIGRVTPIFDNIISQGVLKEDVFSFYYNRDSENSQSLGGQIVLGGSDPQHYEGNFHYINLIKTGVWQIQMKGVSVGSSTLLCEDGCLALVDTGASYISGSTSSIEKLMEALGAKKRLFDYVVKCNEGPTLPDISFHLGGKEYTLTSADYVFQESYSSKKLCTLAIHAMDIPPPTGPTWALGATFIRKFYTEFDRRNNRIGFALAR

[3] = target: Beta-secretase 1 (Homo sapiens) (UniProt P56817); assay: Inhibition of recombinant human C-terminal 10His-tagged BACE1 expressed in mouse NS0 cells at 50 nM using Mca-Ser-Glu-Val-Asn-Leu-Asp-Ala-Glu-Phe-Arg-Lys(Dnp)-Arg-Arg as substrate preincubated for 10 mins followed by substrate addition and measured by FRET assay
[4] = target: Protease (Human immunodeficiency virus 1) (UniProt Q9YQ12); assay: Inhibition of HIV1 protease at 50 nM using Abz-Tyr-Ile-Nle-Nph-Gln-Arg as substrate preincubated for 10 mins followed by substrate addition and measured by FRET assay
Ixodes ricinus = assay: Inhibition of Ixodes ricinus CatD expressed in Escherichia coli BL21(DE3) at 50 nM using Abz-Lys-Pro-Ala-Glu-Phe-Nph-Ala-Leu as substrate preincubated for 10 mins followed by substrate addition and measured by FRET assay
[5] = target: Saccharopepsin (Saccharomyces cerevisiae S288c) (UniProt P07267); assay: Inhibition of Baker's yeast proteinase A at 50 nM using Abz-Lys-Pro-Ala-Glu-Phe-Nph-Ala-Leu as substrate preincubated for 10 mins followed by substrate addition and measured by FRET assay
Papain = target: T2, Papain (Carica papaya, UniProt P00784); assay: Stability of the compound assessed as papaya papain-mediated compound hydrolysis at 25 ug measured after 18 hrs by HPLC analysis; format: ADME
T2 sequence (P00784 whole entry): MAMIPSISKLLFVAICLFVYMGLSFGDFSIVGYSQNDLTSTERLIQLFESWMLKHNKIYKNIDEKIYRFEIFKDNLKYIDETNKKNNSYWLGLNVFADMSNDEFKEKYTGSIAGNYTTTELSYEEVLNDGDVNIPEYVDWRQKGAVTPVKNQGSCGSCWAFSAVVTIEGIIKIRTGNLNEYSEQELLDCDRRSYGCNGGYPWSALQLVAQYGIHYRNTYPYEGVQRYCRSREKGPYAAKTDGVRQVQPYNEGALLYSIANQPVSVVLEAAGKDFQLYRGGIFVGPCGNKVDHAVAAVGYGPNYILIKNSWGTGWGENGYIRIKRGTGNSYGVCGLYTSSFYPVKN

[6] = Stability of the compound assessed as bovine trypsin-mediated compound hydrolysis at 25 ug measured after 18 hrs by HPLC analysis; format: ADME, Bos taurus; conditions: cattle
[7] = Stability of the compound assessed as bovine chymotrypsin-mediated compound hydrolysis at 25 ug measured after 18 hrs by HPLC analysis; format: ADME, Bos taurus; conditions: cattle
Thermolysin = target: T3, Thermolysin (Geobacillus stearothermophilus, UniProt P43133); assay: Stability of the compound assessed as Geobacillus stearothermophilus thermolysin-mediated compound hydrolysis at 25 ug measured after 18 hrs by HPLC analysis; format: ADME
T3 sequence (P43133 whole entry): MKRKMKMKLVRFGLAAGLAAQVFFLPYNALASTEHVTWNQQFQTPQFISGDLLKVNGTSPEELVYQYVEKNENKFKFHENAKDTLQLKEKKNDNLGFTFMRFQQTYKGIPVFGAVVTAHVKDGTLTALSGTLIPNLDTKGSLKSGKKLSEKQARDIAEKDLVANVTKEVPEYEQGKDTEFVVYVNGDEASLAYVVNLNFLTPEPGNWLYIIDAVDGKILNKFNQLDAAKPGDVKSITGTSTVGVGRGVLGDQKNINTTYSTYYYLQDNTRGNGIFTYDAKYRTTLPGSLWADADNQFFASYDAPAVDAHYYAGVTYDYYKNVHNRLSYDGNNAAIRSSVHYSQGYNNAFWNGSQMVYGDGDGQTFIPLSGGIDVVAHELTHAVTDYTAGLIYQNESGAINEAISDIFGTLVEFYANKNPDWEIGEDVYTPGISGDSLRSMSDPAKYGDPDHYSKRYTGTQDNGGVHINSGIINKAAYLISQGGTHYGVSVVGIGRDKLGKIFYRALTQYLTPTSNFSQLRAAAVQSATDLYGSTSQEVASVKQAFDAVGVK

Papain (Carica papaya) = target: T4, Papain (Carica papaya) (UniProt P00784); assay: Inhibition of papaya papain at 1 uM using Z-Phe-Arg-AMC as substrate preincubated for 10 mins followed by substrate addition and measured after 20 mins by fluorescence assay
T4 sequence (whole entry): T2 sequence (P00784 whole entry)

Bos taurus [8] = species: Bos taurus; assay: Inhibition of bovine trypsin at 1 uM using Z-Phe-Arg-AMC as substrate preincubated for 10 mins followed by substrate addition and measured after 20 mins by fluorescence assay
Bos taurus [9] = species: Bos taurus; assay: Inhibition of bovine chymotrypsin at 1 uM using Z-Phe-Arg-AMC as substrate preincubated for 10 mins followed by substrate addition and measured after 20 mins by fluorescence assay
[10] = target: T5, Thermolysin (Geobacillus stearothermophilus) (UniProt P43133); assay: Inhibition of Geobacillus stearothermophilus thermolysin at 1 uM using Abz-Ala-Gly-Leu-Ala-nitro-benzylamide as substrate preincubated for 10 mins followed by substrate addition and measured after 20 mins by fluorescence assay
T5 sequence (whole entry): T3 sequence (P43133 whole entry)

Renin (Homo sapiens) [11] = target: T1, Renin (Homo sapiens); assay: Inhibition of recombinant human N-terminal FLAG-tagged renin (67 to 406 residues) expressed in HEK cells at 5 uM using Arg-Glu(EDANS)-Ile-His-Pro-Phe-His-Leu-Val-Ile-His-Thr-Lys(Dabcyl)-Arg as substrate preincubated for 10 mins followed by substrate addition and measured by FRET assay
[12] = target: Beta-secretase 1 (Homo sapiens) (UniProt P56817); assay: Inhibition of recombinant human C-terminal 10His-tagged BACE1 expressed in mouse NS0 cells at 5 uM using Mca-Ser-Glu-Val-Asn-Leu-Asp-Ala-Glu-Phe-Arg-Lys(Dnp)-Arg-Arg as substrate preincubated for 10 mins followed by substrate addition and measured by FRET assay
[13] = target: Protease (Human immunodeficiency virus 1) (UniProt Q9YQ12); assay: Inhibition of HIV1 protease at 5 uM using Abz-Tyr-Ile-Nle-Nph-Gln-Arg as substrate preincubated for 10 mins followed by substrate addition and measured by FRET assay
[14] = Solubility of the compound in pH 7.4 phosphate buffered saline by HPLC-MS analysis; format: physicochemical

Chain of Beta-secretase 1 (Homo sapiens) (P56817 whole entry): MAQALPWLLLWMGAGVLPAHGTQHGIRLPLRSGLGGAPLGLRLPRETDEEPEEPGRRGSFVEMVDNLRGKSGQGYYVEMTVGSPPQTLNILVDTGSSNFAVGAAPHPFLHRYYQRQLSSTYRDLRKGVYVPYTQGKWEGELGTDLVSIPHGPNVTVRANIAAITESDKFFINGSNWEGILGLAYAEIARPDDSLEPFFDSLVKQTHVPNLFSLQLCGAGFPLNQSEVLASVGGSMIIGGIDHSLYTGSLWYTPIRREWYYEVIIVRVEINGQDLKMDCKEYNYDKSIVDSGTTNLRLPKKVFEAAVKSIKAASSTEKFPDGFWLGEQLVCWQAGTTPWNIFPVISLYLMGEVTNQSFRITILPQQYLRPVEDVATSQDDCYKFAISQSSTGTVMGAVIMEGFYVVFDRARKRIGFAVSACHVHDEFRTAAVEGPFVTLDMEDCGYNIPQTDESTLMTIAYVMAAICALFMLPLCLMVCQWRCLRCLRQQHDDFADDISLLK
Chain of Protease (Human immunodeficiency virus 1) (Q9YQ12 as listed by the source): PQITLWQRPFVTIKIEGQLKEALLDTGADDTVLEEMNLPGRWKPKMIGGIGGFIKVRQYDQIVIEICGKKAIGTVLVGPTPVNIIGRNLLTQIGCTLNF
Chain of Saccharopepsin (Saccharomyces cerevisiae S288c) (P07267 whole entry): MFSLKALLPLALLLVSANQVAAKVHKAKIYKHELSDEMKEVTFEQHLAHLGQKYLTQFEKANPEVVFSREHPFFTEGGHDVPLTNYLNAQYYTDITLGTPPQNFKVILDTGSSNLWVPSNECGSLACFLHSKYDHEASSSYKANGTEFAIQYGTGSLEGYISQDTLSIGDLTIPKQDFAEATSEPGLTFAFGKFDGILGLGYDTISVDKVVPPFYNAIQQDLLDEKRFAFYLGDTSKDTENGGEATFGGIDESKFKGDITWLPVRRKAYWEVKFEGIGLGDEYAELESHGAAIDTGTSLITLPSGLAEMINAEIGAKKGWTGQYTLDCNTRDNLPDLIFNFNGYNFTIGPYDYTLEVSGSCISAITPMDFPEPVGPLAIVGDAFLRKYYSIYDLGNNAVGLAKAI
Chain of Cathepsin D (P07339 65-162 limits assumed): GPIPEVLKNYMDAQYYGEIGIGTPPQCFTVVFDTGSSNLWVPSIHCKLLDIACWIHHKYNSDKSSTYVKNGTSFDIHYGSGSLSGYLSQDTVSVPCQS
Chain of Cathepsin D (P07339 169-412 limits assumed): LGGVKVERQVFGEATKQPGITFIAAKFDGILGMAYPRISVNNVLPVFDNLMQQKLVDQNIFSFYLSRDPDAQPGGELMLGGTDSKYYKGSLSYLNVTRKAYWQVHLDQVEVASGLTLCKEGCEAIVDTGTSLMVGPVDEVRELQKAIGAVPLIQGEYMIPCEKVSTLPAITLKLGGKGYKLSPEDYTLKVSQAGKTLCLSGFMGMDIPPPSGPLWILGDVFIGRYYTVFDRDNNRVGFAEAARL

SMILES	IC50 (Cathepsin D)	Activity (NHDF)	Activity (PBMC)	inhibition (Renin (Homo sapiens) [2])	inhibition [3]	inhibition [4]	inhibition (Ixodes ricinus)	inhibition [5]	Stability (Papain)	Stability [6]	Stability [7]	Stability (Thermolysin)	inhibition (Papain (Carica papaya))	inhibition (Bos taurus [8])	inhibition (Bos taurus [9])	inhibition [10]	inhibition (Renin (Homo sapiens) [11])	inhibition [12]	inhibition [13]	further results
CC(C)[C@@H]1NC(=O)C[C@H](O)[C@H](Cc2ccccc2)NC(=O)OCCCCCCCCCCCNC1=O	2.5 nM	Non-Toxic	Non-Toxic	inactive	inactive	inactive	Active	Active	Stable	Stable	Stable	Stable	inactive	inactive	inactive	inactive	Active	Active	Active	Papp at 5 h, 5 µM [1]: 1.68 ×10⁻⁶ cm/s
O=C1C[C@H](O)[C@H](Cc2ccccc2)NC(=O)CCCCCCCCCCCNC(=O)[C@H](Cc2cccnc2)N1	1.1 nM	Non-Toxic	Non-Toxic	inactive	inactive	inactive	Active	Active	Stable	Stable	Stable	Stable	inactive	inactive	inactive	inactive	Active	Active	Active	solubility [14]: 342 µg/mL (≈ 637 µM)
